Results on six molecules are retold here after patent US20260102492A1, “Inhibition of Natural Killer Cell Cytoxocity” (University of Cincinnati, priority 2022, published 2026).

The test system of data set [1] is HNSCC patient-derived NK cells. In words: CXCL1 ELISA of NK cell culture supernatant. The data set is classed as cell-based, Human. As for the experimental part: Healthy donor and HNSCC NK cells were isolated from PBMCs and were treated for 24 hrs with vehicle or metformin. Supernatant was collected and analyzed by ELISA (analyzed by one way ANOVA. n=10).
HNSCC NK cells were isolated from PBMCs and treated with vehicle, 12 mM metformin, 50 ng CXCL1, 10 uM everolimus, or 10 uM BP-1-102 for 24 hr. The cells were washed and plated in fresh media. After 24 hrs, supernatant was collected for ELISA.
On the technique in general: In an ELISA, binding on a coated surface is turned into a signal by an enzyme label.

In data set [2] the test system is HNSCC patient-derived NK cells. Description: NK cell perforin ELISA after co-culture with Cal27 cells. The data set is classed as cell-based, Human. The conditions noted are these: for reversal of CXCL1 mediated inhibition of perforin: 50 ng CXCL1, Cal27 4 hours. As for the experimental part: For NK cell perforin assays, NK cells were treated with drug for 24 hrs, washed, and co-cultured with Cal27 cells for 4 hours. Supernatant was then collected, snap frozen in liquid nitrogen and stored at −80 until thawed for single use. For patient samples, undiluted plasma was added directly to ELISA. ELISA kit for perforin was obtained from ABCAM. ELISA was performed according to the manufacturer's protocol. Protocols included overnight coating of capture antibody diluted by lot number recommendation, 1 hr block with 400 uL 2% BSA in PBS, 2 hr sample incubation at room temperature of 100 uL sample (no dilution of sample was performed in these experiments), 2 hr […] diluted by lot number recommendation, 20 min Streptavidin incubation with 100 uL of 1:40 dilution of stock, and 15 min incubation with 100 uL included TMB ELISA reagent. 50 uL stop solution of in house 2N […] was added to stop reaction before reading at […] wavelength on plate reader. All plates included standard curve prepared per lot number recommendation with range of 35-2000 pg.
HNSCC patient-derived NK cells were treated with exogenous CXCL1 and an inhibitor of the CXCL1 receptor, CXCR2, or metformin. Patient-derived NK cells were exposed to Cal27 cells for 4 hours and supernatant was collected for perforin analysis by ELISA. Specifically, HNSCC NK cells derived from PBMCs were treated with 50 ng CXCL1, 12 mM metformin, or 10 nM CXCR2i (navarixin) and subjected to perforin against Cal27 target cells. Cells were analyzed by flow and analyzed by one way ANOVA. n=8.
Specifically, HNSCC NK cells were treated with vehicle, metformin, or 10 uM AMPK inhibitor (Dosomorphin) for 24 hrs, washed, and co-cultured with Cal27 cells for 4 hrs. Supernatant was collected for ELISA and analyzed by one way ANOVA. n=5.
HNSCC patient-derived NK cells were treated with vehicle, metformin, 10 uM mTOR inhibitor (Everolimus), or 10 uM mTOR activator (MHY1485) for 24 hrs, washed, and co-cultured with Cal27 cells for 4 hrs. Supernatant was collected for ELISA and analyzed by one way ANOVA. n=5.
As pSTAT1 can modulate perforin production, HNSCC patient-derived NK cells were treated with vehicle, […], or 10 uM of pSTAT1i inhibitor Fludarabine for 24 hrs, washed, and co-cultured with Cal27 cells for 4 hrs.
HNSCC NK cells were treated with vehicle, 12 mM metformin, 50 ng CXCL1, or 10 uM pSTAT3 inhibitor BP-1012 and co-cultured with Cal27 cells for 4 hrs. Supernatant was collected for ELISA and analyzed by one way ANOVA. n=5.

A further data set relates to pSTAT1. In words: Western blot of HNSCC NK cell lysates, pSTAT1. It counts as cell-based, Human. The conditions noted are these: metformin or 50 ng CXCL1, 24 hrs, FIG. 3A/3B. The method, then: NK92, Cal27, UMSCC47 and HN5 cells were cultured with drug as described. Cells were collected in RIPA (0.05% sodium deoxycholate, […], 0.1% SDS, 1% NP-40) and protein content was analyzed by Pierce BCA kit (Thermo 23225). 50 ug of protein was diluted in 1×loading buffer (SDS, bromophenol blue, 47% glycerol, Tris 0.5M pH 6.8, 0.2 mM DTT-G) and heated to 90° C. for 3 minutes. Prepared lysate was loaded into gradient gels (Biorad 4561093) and run at 85V for 1.5 hour in Biorad casing with a Biorad powerpack in 1×running buffer (Tris, Glycine, SDS). Gels were transferred on nitrocellulose and run at 100V on bench for 1 hour in 1×transfer buffer (Tris, Glycine). […] Images were analyzed in Image Studio Lite V 5.2.
To determine what those pathways could be, pathways known to be affected by both metformin and CXCL1 were investigated. pSTAT3 and mTOR are known to be increased by activation of the CXCR2 receptor, and mTOR activation can inhibit pSTAT1 expression. […] Therefore, HNSCC patient-derived NK cells treated with metformin, CXCL1, or CXCR2i (navaxarin) were collected and analyzed by western blot analysis. Head and neck squamous cell carcinoma (HNSCC) natural killer (NK) cells were treated with metformin, 50 ng CXCL1, or 10 uM CXCR2i (navarixin) for 24 hrs and collected for lysates analyzed by western blot analysis (FIG. 3A).
(Immunoblotting shows a protein as a band on a membrane.)

The next data set has as its system HNC cells. Description: Natural killer cytotoxicity assay (NKCA), NK cells against CFSE labeled HNC cells (7AAD). It counts as cell-based. The conditions noted are these: exogenous CXCL1 added to metformin treated NK cells. The method, then:
FIG. 12B is a graph showing NK cells that were treated with either pembrolizumab (PD-1 inhibitor), exogenous CXCL1, Navaxarin (CXCR2 inhibitor) or combination and combined with CFSE labeled HNC cells. Cytotoxicity was measured by 7AAD 4 hours after incubation. N=5, PBMCS or NK cells isolated from the same PBMCs from patient samples.
NK cells were isolated from PBMCs using the EasySep Human NK Cell Isolation Kit (Stem Cell Technologies). Cells were washed in Robobuffer and treated with drug indicated in legend for 24 hrs in culture medium. One day before co-culture, cells were collected, washed, and stained with 5(6)-Carboxyfluorescein diacetate N-succinimidyl ester (CFDA-SE) (StemCell Technologies). Untreated UMSCC47, Cal-27, or matched primary HNC tumor cell lines cells were plated at 20,000 cell/ml and assumed to double overnight. NK cells were resuspended in RPMI 1640 (Corning) with 5% human serum at a density of 200,000 cells/ml. Cells were co-cultured for a Target:Effector ratio of 1:5 for 4 hrs, collected, and washed in flow buffer. Cells were then stained with 7AAD Viability Staining Solution (Biolegend). Cells were immediately run on a 4-laser BD Instrument (University of Cincinnati Cancer Cell Biology Department, Cincinnati, Ohio). […] NK killed cells were calculated by the following equation: (% CSFE+7AAD+experimental co-culture)−(% CSFE+7AAD+control no co-culture).

For another data set, the system named is pSTAT3. In words: Western blot of HNSCC NK cell lysates, pSTAT3. It counts as cell-based, Human. As for the experimental part: NK92, Cal27, UMSCC47 and HN5 cells were cultured with drug as described. Cells were collected in RIPA (0.05% sodium deoxycholate, […], 0.1% SDS, 1% NP-40) and protein content was analyzed by Pierce BCA kit (Thermo 23225). 50 ug of protein was diluted in 1×loading buffer (SDS, bromophenol blue, 47% glycerol, Tris 0.5M pH 6.8, 0.2 mM DTT-G) and heated to 90° C. for 3 minutes. Prepared lysate was loaded into gradient gels (Biorad 4561093) and run at 85V for 1.5 hour in Biorad casing with a Biorad powerpack in 1×running buffer (Tris, Glycine, SDS). Gels were transferred on nitrocellulose and run at 100V on bench for 1 hour in 1×transfer buffer (Tris, Glycine). Membranes were blocked in 5% BSA in TBS for 1 hr, washed, and incubated in primary diluted in 2% BSA in TBS overnight. Membranes were washed and incubated in Licor secondary (Licor 926-32211 and 925-68070) in 5% BSA in TBS for 1 hr. Membranes were washed and imaged on a Licor Odyssey Clx. Images were analyzed in Image Studio Lite V 5.2.
To determine what those pathways could be, pathways known to be affected by both metformin and CXCL1 were investigated. pSTAT3 and mTOR are known to be increased by activation of the CXCR2 receptor, and mTOR activation can inhibit pSTAT1 expression. Metformin is also hypothesized to inhibit pSTAT3 and mTOR in NK cells. Therefore, HNSCC patient-derived NK cells treated with metformin, CXCL1, or CXCR2i (navaxarin) were collected and analyzed by western blot analysis. Head and neck squamous cell carcinoma (HNSCC) natural killer (NK) cells were treated with metformin, 50 ng CXCL1, or 10 uM CXCR2i (navarixin) for 24 hrs and collected for lysates analyzed by western blot analysis (FIG. 3A).

Data set [3] concerns CXCL1. In words: Patient plasma CXCL1 ELISA, trial NCT02641093 (pre and post pembrolizumab). It counts as in vivo, Human.
For data set [4], the system named is CXCL1. In words: Plasma CXCL1 of pembrolizumab treated head and neck cancer patients (FIG. 11). The data set is classed as in vivo, Human. The conditions noted are these: pembrolizumab treated patients vs baseline; preliminary data. An excerpt:
CXCL1 was knocked out by CRISP-Cas9 in NK cells as a novel approach in order to enhance their tumor cytotoxicity. These NK cells can be used as an “off the shelf” anti-cancer therapeutic. […] In addition, CXCL1 functions were inhibited with a CXCR2 inhibitor as an alternative treatment strategy with and without addition of a PD-1 inhibitor. […] In addition, the combination of pembrolizumab and CXCR2 inhibitor (Navaxarin) increases both PBMC and NK cell cytotoxicity (FIGS. 12A, 12B and 13).

The mark [5] stands for this setting: combination of 10 uM everolimus and 10 uM BP-1-102, also with 50 ng CXCL1, n=5.
The mark [6] stands for this setting: single agent (12 mM metformin, 10 uM everolimus or 10 uM BP-1-102) 24 hr, fresh media 24 hrs, n=5, FIG. 8.
The mark [7] stands for this setting: 10 uM single agent 24 hrs, Cal27 co-culture 4 hrs, n=5, FIG. 5.

For the molecule `CO[C@H]1C[C@@H]2CC[C@@H](C)[C@@](O)(O2)C(=O)C(=O)N2CCCC[C@H]2C(=O)O[C@H]([C@H](C)C[C@@H]2CC[C@@H](OCCO)[C@H](OC)C2)CC(=O)[C@H](C)/C=C(\C)[C@@H](O)[C@@H](OC)C(=O)[C@H](C)C[C@H](C)/C=C/C=C/C=C/1C` [Everolimus], the CXCL1 secretion result in data set [1] (setting [5]) is “decreased levels down to those similar of metformin even in the presence of CXCL1”; in data set [1] (setting [6]), “did not reduce CXCL1”. The perforin production entry was “did not increase perforin over either agent alone” in data set [2] (10 uM Everolimus in combination with metformin 24 hrs, Cal27 co-culture 4 hrs, n=5) and “enhanced perforin production similar to metformin” in data set [2] (setting [7]).

In the case of C-X-C motif chemokine ligand 1 [CXCL1], in the data set on pSTAT1, the pSTAT1 entry was “did not reverse pSTAT1 expression with metformin or change it from baseline”. The metformin induced cytotoxicity entry with HNC cells is on record as “ablated metformin induced cytotoxicity”. In data set [2] (12 mM metformin or 50 ng CXCL1, Cal27 target cells 4 hours, n=8, FIG. 2), the perforin production result is reported as “reduced NK cell perforin production”. Moreover, in data set [2] (exogenous CXCL1 added to metformin, FIG. 2), the “metformin mediated NK degranulation” value was “reverses metformin mediated NK degranulation”. Besides, the “metformin reduction of pSTAT3” value in the data set with pSTAT3 (exogenous CXCL1 (50 ng) together with metformin, 24 hrs) is reported as “reversed”. Besides, in the data set with pSTAT3 (metformin or 50 ng CXCL1, 24 hrs, western blot, FIG. 3A/3B), the pSTAT3 entry was “increases pSTAT3”.

As to `CN(CC(=O)N(Cc1ccc(C2CCCCC2)cc1)c1ccc(C(=O)O)c(O)c1)S(=O)(=O)c1c(F)c(F)c(F)c(F)c1F` [BP-1-102], the CXCL1 secretion result in data set [1] (setting [5]) is given as “decreased levels down to those similar of metformin even in the presence of CXCL1”; in data set [1] (setting [6]), “did not reduce CXCL1”. The “rescue of CXCL1 mediated suppression of perforin” value in data set [2] (10 uM pSTAT3 inhibitor with 50 ng CXCL1, alone or with 12 mM metformin, Cal27 4 hrs, n=5) is “able to rescue CXCL1 mediated suppression of perforin both alone or in presence of metformin”. In addition, the perforin result in data set [2] (10 uM pSTAT3 inhibitor, baseline, Cal27 co-culture 4 hrs, n=5, FIG. 7) is “no effect on perforin at baseline”.

As for pembrolizumab, the “plasma CXCL1” value is “significant increase in CXCL1” with CXCL1 [3] (all patients, post vs pre pembrolizumab, FIG. 10A); “non-responders accounted for the increase” in the data set with CXCL1 [3] (divided into responders and non-responders, n=10 each, FIG. 10B); “increased with non-responders” in the data set with CXCL1 [3] (divided into responders and non-responders, n=10 each, FIG. 10B, listed as Pembrolizumab). Moreover, the CXCL1 in plasma entry with CXCL1 [4] is reported as “trend to higher levels of CXCL1”.

On to `O=[N+]([O-])c1ccc(Nc2nc(N3CCOCC3)nc(N3CCOCC3)n2)cc1` [MHY1485], for which, in data set [2] (setting [7]), the perforin production result was “did not result in suppression of perforin”.

As for `CC[C@@H](Nc1c(Nc2cccc(C(=O)N(C)C)c2O)c(=O)c1=O)c1ccc(C)o1` [CXCR2 inhibitor, Navarixin], the “reversal of CXCL1 mediated inhibition of perforin” value in data set [2] (10 nM CXCR2i (navarixin) alone, n=8) is given as “reversed CXCL1 mediated inhibition”; in data set [2] (10 nM CXCR2i (navarixin) in combination with 12 mM metformin, n=8), “reversed CXCL1 mediated inhibition”.
